Here are results for 10 molecules from publication PMC8842277, “Highly Antiproliferative Latonduine and Indolo[2,3-c]quinoline Derivatives: Complex Formation with Copper(II) Markedly Changes the Kinase Inhibitory Profile” (Journal of Medicinal Chemistry, 2022).

As a reminder, the IC50 is the concentration that gives 50% inhibition.

A short description of data set [1]: Proton dissociation constants by UV–vis titration. Format: physicochemical. Conditions: 30–70% (w/w) DMSO–water, 298 K, I = 0.10 M (KCl). As to the method:
The protonation processes of HL^1nm and its morpholine counterpart HL^1 (Chart 3) and the solution stability of their copper(II) complexes (1nm and 1) were characterized by UV–vis spectrophotometry. […] Based on the characteristic changes in the UV–vis spectra for HL^1nm in the pH range 2–6 (Figure 3a), two relatively well-separated proton dissociation processes were observed and their pKa values were determined (Table 1).
An Agilent Carry 8454 diode array spectrophotometer was used to record the UV–visible (UV–vis) spectra in the interval 200–800 nm. The path length was 2 or 0.5 cm. Spectrophotometric titrations were performed on samples containing the proligands HL^1, HL^1nm, or their copper(II) complexes (1 and 1nm; see Chart 2) by a KOH solution in the presence of 0.1 M KCl in a DMSO:water 30:70 (w/w) mixture as a solvent at 25.0 ± 0.1 °C in the pH range from 2 to 11. […] An Orion 710A pH meter equipped with a Metrohm combined electrode (type 6.0234.100) and a Metrohm 665 Dosimat burette were used for the pH measurements and titrations. […] The average water ionization constant (pKw) is 14.52 ± 0.05, which corresponds well to the literature data.[103] Argon was passed over the solutions during the titrations. Proton dissociation constants (pKa) of the ligand, overall stability constants (log β) of the copper(II) complexes, and the individual spectra of the various species present in the solution were calculated by the computer program PSEQUAD.[104] β (MpLqHr) is defined for the general equilibrium pM + qL + rH MpLqHr as β (MpLqHr) = [MpLqHr]/[M]^p[L]^q[H]^r where M denotes the copper(II) ion and L the completely deprotonated ligand. The calculations were always made from the experimental titration data measured in the absence of any precipitate in the solution.

In data set [2] the test system is multidrug-resistant Colo320 human colon adenocarcinoma cells. Nature of the data set: MTT antiproliferative assay. Conditions: for selectivity factor (SF) Colo320: IC50 MRC-5/IC50 Colo320; for IC50: MTT, 72 h. It is filed as cell-based. As to the method:
(§1) The in vitro antiproliferative activity of the compounds was tested in doxorubicin-sensitive Colo205 and multidrug-resistant Colo320 human colon adenocarcinoma cell lines as well as in normal human embryonal lung fibroblast cells (MRC-5) by MTT assay.
(§2) Human colonic adenocarcinoma cell lines Colo 205 doxorubicin-sensitive (ATCC-CCL-222) and Colo 320/MDR-LRP multidrug resistant over-expressing ABCB1 (MDR1)-LRP (ATCC-CCL-220.1) were purchased from LGC Promochem, Teddington, UK. The cells were cultured in an RPMI 1640 medium supplemented with 10% heat-inactivated fetal bovine serum, 2 mM L-glutamine, 1 mM Na-pyruvate, and 10 mM HEPES. The semi-adherent human colon cancer cells were detached with Trypsin-Versene (EDTA) solution for 5 min at 37 °C. An MRC-5 human embryonal lung fibroblast cell line (ATCC CCL-171) was purchased from LGC Promochem, Teddington, UK. The cells were cultured in Eagle’s minimal essential medium (EMEM, containing 4.5 g L^–1 glucose) supplemented with a non-essential amino acid mixture, a selection of vitamins, and 10% heat-inactivated fetal bovine serum. The HCT-116 colon carcinoma cells and isogenic p53-knock-out subline were a gift of Prof. Bert Vogelstein from The Johns Hopkins Oncology Center. Cells were cultured in McCoy’s 5A medium supplemented with 10% heat-inactivated fetal bovine serum and 4 mM L-glutamine. All cell lines were incubated at 37 °C, in a 5% CO2, 95% air atmosphere.
(§3) MRC-5 non-cancerous human embryonic lung fibroblast and human colonic adeno-carcinoma cell lines (doxorubicin-sensitive Colo 205 and multidrug resistant Colo 320 colonic adenocarcinoma cells) were used to determine the effect of compounds on cell growth. The effects of increasing concentrations of compounds on cell growth were tested in 96-well flat-bottomed microtiter plates. The compounds were dissolved in DMSO and stock solutions of 10 mM were prepared. These were further diluted in the appropriate cell culture medium by twofold serial dilution starting from 100 or 10 μM for the compounds. The adherent human embryonal lung fibroblast cells were cultured in 96-well flat-bottomed microtiter plates using EMEM supplemented with 10% heat-inactivated fetal bovine serum. The density of the cells was adjusted to 1 × 10^4 cells in 100 μL per well, the cells were seeded for 24 h at 37 °C, 5% CO2, then the medium was removed from the plates containing the cells, and the dilutions of compounds previously made in a separate plate were added to the cells in 200 μL. In the case of the colonic adenocarcinoma cells, the twofold serial dilutions of compounds were prepared in 100 μL of RPMI 1640, horizontally. The semi-adherent colonic adenocarcinoma cells were treated with Trypsin-Versene (EDTA) solution. They were adjusted to a density of 1 × 10^4 cells in 100 μL of RPMI 1640 medium and were added to each well, with the exception of the medium control wells. The final volume of the wells containing compounds and cells was 200 μL. The culture plates were incubated at 37 °C for 72 h; at the end of the incubation period, 20 μL of MTT (thiazolyl blue tetrazolium bromide, Sigma) solution (from a stock solution of 5 mg mL^–1) was added to each well. After incubation at 37 °C for 4 h, 100 μL of sodium dodecyl sulfate (SDS) (Sigma) solution (10% in 0.01 M HCI) was added to each well and the plates were further incubated at 37 °C overnight. Cell growth was determined by measuring the optical density (OD) at 540/630 nm with a Multiscan EX ELISA reader (Thermo Labsystems, Cheshire, WA, USA). […] Curves were fitted by GraphPad Prism software[57] using the sigmoidal dose–response model (comparing variable and fixed slopes). The IC50 values were obtained from at least three independent experiments. Tests in adherent HCT-116 colon carcinoma cells and an isogenic p53-knock-out subline thereof were performed in a similar manner, with 1.5 × 10^3 cells seeded in 100 μL of McCoy’s 5A medium (Sigma-Aldrich) per well. […]
(In general: Tetrazolium assays rely on reduction of a dye to a coloured formazan, in cell work by metabolically active cells.)

Data set [3] has as its system doxorubicin-sensitive Colo205 human colon adenocarcinoma cells. The experiment in a line: MTT antiproliferative assay. Format: cell-based. Conditions: for selectivity factor (SF) Colo205: IC50 MRC-5/IC50 Colo205; for IC50: MTT, 72 h. As to the method:
as §1, §2, §3

For data set [4], the system named is normal human embryonal lung fibroblast cells (MRC-5). Nature of the data set: MTT antiproliferative assay. Format: cell-based. Conditions: read-out: IC50 MRC-5 benign, mean. Here is the method: as §1, §2, §3
Data set [5] can be described thus: Thermodynamic solubility, UV–vis of saturated solutions. Here is the method: The concentration of the compounds was determined by UV–vis spectrophotometry using stock solutions of the compounds with a known concentration dissolved in pure DMSO and 50% (v/v) DMSO/buffered aqueous solution for the calibration.
The subject of another data set is Colo320 cells. The experiment in a line: Apoptosis assay, Annexin-V-FITC/PI flow cytometry. Conditions: 3 h induction. Here is the method: An apoptosis assay was performed by flow cytometry via the analysis of multidrug-resistant Colo320 cells stained with Annexin-V-FITC and propidium iodide (PI).
Colo320 cells were treated at the indicated concentration of the compounds. The dual parametric dot plots combining Annexin-V (FL1) and PI (FL3) fluorescence show the viable cell population in the lower left quadrant Annexin-V–/PI– (Q4), the early apoptotic cells in the lower right quadrant Annexin-V+/PI– (Q3), and the late apoptotic and necrotic cells in the upper right quadrant Annexin-V+/PI+ (Q2).
The assay was carried out for selected compounds using an Annexin V-FITC Apoptosis Detection Kit (cat. no. APOAF-50TST) from Sigma according to the manufacturer’s instructions. The concentration of the Colo320 cell suspension was adjusted to approximately 0.5 × 10^6 cells/mL in an RPMI 1640 medium, and the cell suspension was distributed in 1 mL of aliquots into a 24-well plate and then incubated overnight at 37 °C and 5% CO2. On the following day, the medium was removed and replaced by 1 mL of RPMI medium containing the compounds except the control samples. […] After the incubation period, the samples were washed with PBS and fresh RPMI 1640 medium was added to the samples. The cells were incubated overnight at 37 °C and 5% CO2. The next day, 200 μL of 0.25% Trypsin (Trypsin-Versen) was added to the samples until cells appeared detached followed by the addition of 400 μL of RPMI 1640 medium supplemented with 10% bovine serum. The cells were collected in Eppendorf tubes and centrifuged at 2000g for 2 min. The harvested cells were resuspended in fresh serum-free RPMI 1640 culture medium. After this step, the apoptosis assay was carried out according to the instructions of the manufacturer. The fluorescence was analyzed immediately using a ParTec CyFlow flow cytometer (Partec GmbH, Münster, Germany).
• Apoptosis and DNA binding studies […]

Setting [6] is: pH 5, 20 mM MES buffer, water, 298 K.
The mark [7] stands for this setting: pH 7.4, 20 mM HEPES, water, 298 K.

Like-named read-outs stand apart in the source and are kept apart here.

As to `C(=NNC1=NCc2ccccc2-c2c1[nH]c1ccccc21)c1ccccn1.[Cl][Cu][Cl]` [1nm], in data set [1], the “pKa [Cu(HL^1nm)]^2+” value is recorded as 4.32 and the “pKa [Cu(L^1nm)]^+” value worked out at 7.09.

Consider `CC(=NNC1=NCc2ccccc2-c2c1[nH]c1ccc(Br)cc21)c1ccccn1.[Cl][Cu][Cl]` [4nm], for which, in data set [2], the “selectivity factor (SF) Colo320” value is on record as 0.54 and the IC50 came out at 350 nM. Besides, in data set [3], the “selectivity factor (SF) Colo205” value is 2.29 and the IC50 came to 83 nM. Besides, the half-inhibitory concentration (IC50) in data set [4] (72 h) is 190 nM.

Consider `C(=NNc1nc2ccccc2c2c1[nH]c1ccccc12)c1ccccn1.[Cl][Cu][Cl]` [5nm], for which the entries for the “Thermodynamic solubility (S)” value in data set [5] (setting [6]) and in data set [5] (setting [7]) were 134 µM and 5.7 µM, respectively.

Take `Brc1ccc2[nH]c3c(NN=Cc4ccccn4)nc4ccccc4c3c2c1.[Cl][Cu][Cl]` [6nm]: the results for the “Thermodynamic solubility (S)” value in data set [5] (setting [6]) and in data set [5] (setting [7]) were 8.9 µM and 3.1 µM, respectively.

As to `C/C(=N\N=C1/NCc2ccccc2-c2c1[nH]c1ccc(Br)cc21)c1ccccn1` [HL^4nm], the half-maximal inhibitory concentration (IC50) in data set [2] (Homo sapiens, COLO 320) came out at 8190 nM; in data set [3] (Homo sapiens, COLO 205) it was 91 nM; in data set [4] (Homo sapiens, MRC5, 72 h) it was 111 nM. The “selectivity factor (SF) Colo320” value in data set [2] was 0.01. Also, the “selectivity factor (SF) Colo205” value in data set [3] is recorded as 1.22.

Take `C(=NN=c1[nH]c2ccccc2c2c1[nH]c1ccccc12)c1ccccn1` [HL^5nm]: the entries for the “Thermodynamic solubility (S)” value in data set [5] (setting [6]) and in data set [5] (setting [7]) were 1.1 µM and 0.3 µM, respectively.

Turning to `c1ccc2c(c1)Nc1c(ccc3ccccc13)S2` [M627, 12H-benzo[α]phenothiazine, reference compound], in the data set on Colo320 cells (10 µM), the “Cell death % Q1” value is on record as 4.59%; the “Early apoptosis % Q3” value is listed as 12.4%; the “Late apoptosis and necrosis % Q2” value is recorded as 31.5%. In addition, in the data set on Colo320 cells (20 µM), the “Cell death % Q1” value was found to be 7.85%; the “Early apoptosis % Q3” value is 11.1%; the “Late apoptosis and necrosis % Q2” value was determined as 26.1%.

With `Brc1ccc2[nH]c3c(NN=Cc4ccc(CN5CCOCC5)cn4)nc4ccccc4c3c2c1.[Cl][Cu][Cl]` [compound 6, CuCl2(HL^6)·1.5H2O], in data set [2], the “selectivity factor (SF) Colo320” value is 0.26. Further, the figures for the IC50 in data set [2], in data set [3] and in data set [4] (72 h) were 851 nM, 1090 nM and 221 nM, respectively. For the same molecule, in data set [3], the “selectivity factor (SF) Colo205” value was found to be 0.20. Moreover, the figures for the “Thermodynamic solubility (S)” value in data set [5] (pH 5) and in data set [5] (pH 7.4) were 6.6 µM and 0.4 µM, respectively.

Turning to `CC(=NNc1nc2ccccc2c2c1[nH]c1ccccc12)c1ccc(CN2CCOCC2)cn1.[Cl][Cu][Cl]` [compound 7, CuCl2(HL^7)·0.5H2O], the “selectivity factor (SF) Colo320” value in data set [2] was 4.38. Further, the IC50 in data set [2] was found to be 149 nM; in data set [3], 98 nM; in data set [4] (72 h), 652 nM. Further, the “selectivity factor (SF) Colo205” value in data set [3] is 6.65. Further, the results for the “Thermodynamic solubility (S)” value in data set [5] (pH 5) and in data set [5] (pH 7.4) were 89.7 µM and 38.3 µM, respectively.

On to `COc1cccc2c1C(=O)c1c(O)c3c(c(O)c1C2=O)C[C@@](O)(C(=O)CO)C[C@@H]3O[C@H]1C[C@H](N)[C@H](O)[C@H](C)O1` [doxorubicin, reference compound], for which the IC50 is 5430 nM in data set [2] (Homo sapiens, COLO 320); 712 nM in data set [3] (Homo sapiens, COLO 205); 11000 nM in data set [4] (Homo sapiens, MRC5, 72 h). The “selectivity factor (SF) Colo320” value in data set [2] was 2.03. For the same molecule, the “selectivity factor (SF) Colo205” value in data set [3] was determined as 15.44.
